ChEMBL document CHEMBL1201862, “PubChem BioAssay data set” (2004)
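Protocol summary: plate cells (96-well), add compound at 5 concentrations, incubate 48 h, interpolate endpoints linearly. GI50 = concentration required for 50% inhibition of growth.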 Activity calls are given as the source filed them. Cut-off read from the data, not from the text of the source: active = GI50 up to about 1.1 µM and inactive = higher.

Legend:
Test in all cases: DTP human tumour cell line panel, 48 h
[1] = test system: DMS-114
[2] = test system: DMS-273
[3] = test system: HOP-18
[4] = test system: KM-20L2
[5] = test system: LXFL 529
[6] = test system: M19-MEL
[7] = test system: RXF 631
[8] = test system: SNB-78
[9] = test system: XF498

Compound	GI50 [1]	GI50 [2]	GI50 [3]	GI50 [4]	GI50 [5]	GI50 [6]	GI50 [7]	GI50 [8]	GI50 [9]
COc1cc2c3c(c1OC)/C(=N/OS(=O)(=O)c1ccc(C)cc1)CC3N(S(=O)(=O)c1ccc(C)cc1)CC2 (stereo unspecified)	> 100 µM (inactive)	> 100 µM (inactive)	> 100 µM (inactive)	> 100 µM (inactive)	> 100 µM (inactive)	> 100 µM (inactive)	66.1 µM (inactive)	41.7 µM (inactive)	> 100 µM (inactive)
NC(=O)/C(=N\NC(=O)c1cc2ccccc2cc1O)C1C(=O)N(c2ccccc2)N=C1N (stereo unspecified)	20.4 µM (inactive)		17.5 µM (inactive)	32.9 µM (inactive)	59.3 µM (inactive)	30.6 µM (inactive)	37.3 µM (inactive)	69.8 µM (inactive)	37.6 µM (inactive)
Cc1cc2c(=O)cc(-c3ccc(Cl)cc3)oc2c(C(=O)O)c1C	> 100 µM (inactive)	> 100 µM (inactive)	> 100 µM (inactive)	> 100 µM (inactive)	> 100 µM (inactive)	> 100 µM (inactive)	> 100 µM (inactive)	> 100 µM (inactive)	> 100 µM (inactive)
CCOC(=O)Cc1ccc2c(c1O)C(=O)c1c(ccc(CC(=O)OCC)c1O)C2=O	> 100 µM (inactive)	> 100 µM (inactive)	28.4 µM (inactive)	> 100 µM (inactive)	> 100 µM (inactive)	> 100 µM (inactive)		> 100 µM (inactive)	> 100 µM (inactive)
S=P1(c2ccccc2)Nc2ccc(Cl)cc2N1 (stereo unspecified)	26.6 µM (inactive)	> 100 µM (inactive)	> 100 µM (inactive)	> 100 µM (inactive)	17.6 µM (inactive)	14.2 µM (inactive)	85.7 µM (inactive)	23.5 µM (inactive)	> 100 µM (inactive)
O=C(O)C1=CCCc2ccc3ccccc3c21	> 100 µM (inactive)	> 100 µM (inactive)	21.6 µM (inactive)	> 100 µM (inactive)	> 100 µM (inactive)	> 100 µM (inactive)	> 100 µM (inactive)	> 100 µM (inactive)	> 100 µM (inactive)
O=C(Cl)c1cc([N+](=O)[O-])cc([N+](=O)[O-])c1	> 100 µM (inactive)	> 100 µM (inactive)			> 100 µM (inactive)	> 100 µM (inactive)		> 100 µM (inactive)	> 100 µM (inactive)
O=C1/C(=C/c2ccc(Cl)cc2)CCC1CN1CCOCC1 (stereo unspecified)	22.8 µM (inactive)	3.06 µM (inactive)	13.9 µM (inactive)	10.7 µM (inactive)	2.58 µM (inactive)		8.36 µM (inactive)	12.5 µM (inactive)	2.55 µM (inactive)
O=C(Nc1cc([N+](=O)[O-])cc([N+](=O)[O-])c1)OC1C2CCC1C1OC1C2 (stereo unspecified)	30.5 µM (inactive)			> 50 µM (inactive)		> 50 µM (inactive)		> 50 µM (inactive)	
CC(=O)[O-].[O-]c1c(Cl)cc(Cl)cc1/C=N/Nc1ccccn1.[Zn+2]	0.239 µM (active)			3.7 µM (inactive)	0.436 µM (active)	0.745 µM (active)			
CCNC(=O)C(O)C1(O)CCC2[C@@H]3CCC4=CC(=O)C=C[C@]4(C)C3[C@@H](O)C[C@@]21C (stereo partly specified)	60.7 µM (inactive)	> 100 µM (inactive)	33.3 µM (inactive)	> 100 µM (inactive)	> 100 µM (inactive)	> 100 µM (inactive)	> 100 µM (inactive)	> 100 µM (inactive)	> 100 µM (inactive)
C=C(CN(C)C)C(=O)c1ccc(OC)cc1	3.7 µM (inactive)	3.8 µM (inactive)	3.78 µM (inactive)	5.13 µM (inactive)	1.69 µM (inactive)	2.07 µM (inactive)		2.36 µM (inactive)	1.93 µM (inactive)
CNC=O	> 5160 µM (inactive)	> 10000 µM (inactive)	> 10000 µM (inactive)	> 10000 µM (inactive)		> 10000 µM (inactive)		> 7830 µM (inactive)	> 9550 µM (inactive)
O=C1C=CC(=C(c2ccc(O)cc2)c2ccc(O)cc2)C=C1 [AURIN]	2.4 µM (inactive)	6.78 µM (inactive)	16.4 µM (inactive)	16.5 µM (inactive)	3.18 µM (inactive)		15 µM (inactive)	5.11 µM (inactive)	11.7 µM (inactive)
